We go through 40 compounds from US20170121344A1 (Siga Technologies, Inc., priority 2009, published 2017).

The test system of this assay is Dengue-2 (Strain New Guinea C). Kind of assay: Viral yield assay against Dengue-2 in Vero cells. The class given is cell-based, Dengue virus. The conditions noted are these: Dengue virus, read-out: Activity (EC50 in μM) DENV-2. The method, boiled down:
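Virus yield, titered on Vero cells from cultures harvested at 48 h post infection, gave the EC50. Cultures were infected at MOI 0.1 with dengue-2 and treated with compound or DMSO at 37° C. DENV-1 and DENV-4 were determined similarly.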

[1] abbreviates: DENV2, viral yield assay, Vero cells, MOI 0.1, 48 hours post infection.

What is called EC50 is the concentration that produces a half-maximal response.

Read-outs that look alike come from different tables or passages of the source. Where only a bound is given, the exact number is not on record here.

For the compound `COc1cc(NC(=O)c2sc3nc(C)cc(C)c3c2C)cc(OC)c1OC` [Compound 401, 3,4,6-trimethyl-N-(3,4,5-trimethoxyphenyl)thieno[2,3-b]pyridine-2-carboxamide], the EC50 under setting [1] is over 25 µM.
Take `CCNC(=O)c1cccc(NC(=O)c2sc3nc(C)cc(C)c3c2C)c1` [Compound 402, N-[3-(ethylcarbamoyl)phenyl]-3,4,6-trimethyl-thieno[2,3-b]pyridine-2-carboxamide]: the EC50 under setting [1] is over 25 µM.
`Cc1cc(C)c2c(C)c(C(=O)Nc3ccccc3O)sc2n1` [Compound 403, N-(2-hydroxyphenyl)-3,4,6-trimethyl-thieno[2,3-b]pyridine-2-carboxamide]: the EC50 under setting [1] is under 5 µM.
Still for that read-out and setting: the value for `Cc1cc(C)c2c(C)c(C(=O)N3CCN(c4cnccn4)CC3)sc2n1` [Compound 404] was under 5 µM; that for `Cc1cc(C)c2c(C)c(C(=O)NCCC(=O)N3CCCC3)sc2n1` [Compound 405, 3,4,6-trimethyl-N-(3-oxo-3-pyrrolidin-1-yl-propyl)thieno[2,3-b]pyridine-2-carboxamide] was under 5 µM; that for `CCN(C(=O)c1sc2nc(C)cc(C(F)(F)F)c2c1C)c1ccccc1` [Compound 406] was under 5 µM.
Consider `COc1ccc(OC)c(CN2CCN(C(=O)c3sc4nc(C)cc(C)c4c3C)CC2)c1` [Compound 407, [4-[(2,5-dimethoxyphenyl)methyl)piperazin-1-yl]-(3,4,6-trimethylthieno [2,3-b]pyridin-2-yl)methanone], for which the EC50 under setting [1] is over 25 µM.
In the case of `Cc1cc(C)c2c(C)c(C(=O)N3CCc4ccccc4C3)sc2n1` [Compound 408, 3,4-dihydro-1H-isoquinolin-2-yl-(3,4,6-trimethylthieno[2,3-b]pyridin-2-yl) methanone], the EC50 under setting [1] is over 25 µM.
Consider `COc1ccccc1C(C)N(C)C(=O)c1sc2nc(C)cc(C)c2c1C` (stereo not shown) [Compound 409, N-[1-(2-methoxyphenyl)ethyl]-N,3,4,6-tetramethyl-thieno[2,3-b]pyridine-2-carboxamide], for which the EC50 under setting [1] is over 25 µM.
On the same count and under the same terms, the value for `Cc1ccc(NC(=S)NNC(=O)c2sc3nc(-c4cccs4)cc(C(F)(F)F)c3c2C)cc1` [Compound 410, 1-[[3-methyl-6-(2-thienyl)-4-(trifluoromethyl)thieno[2,3-b]pyridine-2-carbonyl]amino]-3-(p-tolyl)thiourea] was under 5 µM; that for `O=c1[nH]cnc2c1sc1nc(-c3cccs3)ccc12` [Compound 412, 7-(thiophen-2-yl)pyrido[3′,2′:4,5]thieno [3,2-d]pyrimidin-4(3H)-one] was 5 to 25 µM; that for `Nc1c(C(=O)Nc2ccc(Br)cc2)sc2nc(-c3ccncc3)ccc12` [Compound 416, 3-amino-N-(4-bromophenyl)-6-(4-pyridyl)thieno[2,3-b]pyridine-2-carboxamide] was under 5 µM.
In the case of `Cc1ccc2c(N)c(C(=O)Nc3ccccc3C(F)(F)F)sc2n1` [Compound 418, 3-amino-6-methyl-N-[2-(trifluoromethyl)phenyl]thieno[2,3-b] pyridine-2-carboxamide], the EC50 (DENV2, Vero, 48 h) lay in the range of 5 to 25 µM.
Still for that read-out and setting: the value for `Cc1cccc(NC(=O)c2sc3nc(-c4cccs4)ccc3c2N)c1` [Compound 419, 3-amino-N-(m-tolyl)-6-(2-thienyl) thieno[2,3-b]pyridine-2-carboxamide] was under 5 µM.
For `Nc1c(C(=O)Nc2cccc(C(F)(F)F)c2)sc2ncccc12` [Compound 420, 3-amino-N-[3-(trifluoromethyl)phenyl] thieno[2,3-b]pyridine-2-carboxamide], under setting [1], the EC50 was under 5 µM.
For `Nc1c(C(=O)Nc2cccc(Br)c2)sc2ncccc12` [Compound 421, 3-amino-N-(3-bromophenyl)thieno[2,3-b] pyridine-2-carboxamide], under setting [1], the EC50 lay within 5 to 25 µM.
As to `Nc1c(C(=O)Nc2ccccc2Br)sc2ncccc12` [Compound 422, 3-amino-N-(2-bromophenyl)thieno[2,3-b] pyridine-2-carboxamide], the EC50 under setting [1] is under 5 µM.
Same read-out and setting: the value for `Nc1c(C(=O)Nc2ccc(Br)cc2)sc2ncccc12` [Compound 423, 3-amino-N-(4-bromophenyl)thieno[2,3-b] pyridine-2-carboxamide] was under 5 µM.
Take `Nc1c(C(=O)Nc2ccccc2C(F)(F)F)sc2ncccc12` [Compound 424, 3-amino-N-[2-(trifluoromethyl)phenyl] thieno[2,3-b]pyridine-2-carboxamide]: the EC50 under setting [1] fell in the range of 5 to 25 µM.
As to `COc1ccc(NC(=O)c2sc3nc(-c4cccs4)ccc3c2N)c(OC)c1` [Compound 432, 3-amino-N-(2,4-dimethoxyphenyl)-6-(2-thienyl)thieno[2,3-b]pyridine-2-carboxamide], the EC50 (DENV2, Vero, 48 h) was 5 to 25 µM.
Turning to `Nc1c(C(=O)Nc2ccc(Br)cc2)sc2nc(-c3cccnc3)ccc12` [Compound 435, 3-amino-N-(4-bromophenyl)-6-(3-pyridyl)thieno[2,3-b]pyridine-2-carboxamide], the EC50 under setting [1] is under 5 µM.
In the case of `Nc1c(C(=O)Nc2nc3ccccc3s2)sc2nc(-c3cccs3)ccc12` [Compound 436, 3-amino-N-(1,3-benzothiaozl-2-yl)-6-(2-thienyl)thieno[2,3-b]pyridine-2-carboxamide], under “DENV2, Vero, 48 h”, the EC50 is under 5 µM.
With `Nc1c(C(=O)Nc2cccc(C(F)(F)F)c2)sc2nc(-c3ccncc3)ccc12` [Compound 440, 3-amino-6-(4-pyridyl)-N-[3-(trifluoromethyl)phenyl]thieno[2,3-b] pyridine-2-carboxamide], the EC50 under setting [1] was 5 to 25 µM.
`COc1ccc(C(F)(F)F)cc1NC(=O)c1sc2nc(-c3cccs3)ccc2c1N` [Compound 442, 3-amino-N-[2-methoxy-5-(trifluoromethyl)phenyl]-6-(2-thienyl) thieno[2,3-b]pyridine-2-carboxamide]: under setting [1], the EC50 was under 5 µM.
With `Nc1c(C(=O)Nc2ccc(Cl)c(C(F)(F)F)c2)sc2nc(-c3cccs3)ccc12` [Compound 443, 3-amino-N-[4-chloro-3-(trifluoromethyl)phenyl]-6-(2-thienyl) thieno[2,3-b]pyridine-2-carboxamide], under setting [1], the EC50 is under 5 µM.
Take `COc1ccc(NC(=O)c2sc3nc(-c4cccs4)ccc3c2N)cc1OC` [Compound 444, 3-amino-N-(3,4-dimethoxyphenyl)-6-(2-thienyl)thieno[2,3-b]pyridine-2-carboxamide]: the EC50 (DENV2, Vero, 48 h) was under 5 µM.
Turning to `COc1ccc(-c2ccc3c(N)c(C(=O)Nc4ccc(Br)cc4)sc3n2)cc1OC` [Compound 451, 3-amino-N-(4-bromophenyl)-6-(3,4-dimethoxyphenyl)thieno[2,3-b]pyridine-2-carboxamide], the EC50 under setting [1] was under 5 µM.
With `Nc1c(C(=O)Nc2cccc(C(F)(F)F)c2)sc2nc(-c3ccc(F)cc3)ccc12` [Compound 456, 3-amino-6-(4-fluorophenyl)-N-[3-(trifluoromethyl)phenyl]thieno[2,3-b] pyridine-2-carboxamide], the EC50 under setting [1] is under 5 µM.
As for `Cc1ccc2c(N)c(C(=O)Nc3ccc(OC(F)(F)F)cc3)sc2n1` [Compound 457, 3-amino-6-methyl-N-[4-(trifluoromethoxy)phenyl]thieno[2,3-b] pyridine-2-carboxamide], the EC50 under setting [1] was 5 to 25 µM.
In the case of `COc1ccc(Cl)cc1NC(=O)c1sc2nc(-c3cccs3)ccc2c1N` [Compound 460, 3-amino-N-(5-chloro-2-methoxy-phenyl)-6-(2-thienyl)thieno[2,3-b]pyridine-2-carboxamide], the EC50 under setting [1] was under 5 µM.
In the case of `Cc1ccc(F)cc1NC(=O)c1sc2nc(-c3cccs3)ccc2c1N` [Compound 463, 3-amino-N-(5-fluoro-2-methyl-phenyl)-6-(2-thienyl)thieno [2,3-b]pyridine-2-carboxamide], the EC50 under setting [1] was under 5 µM.
Regarding `Nc1c(C(=O)Nc2ccccc2Br)sc2nc(-c3ccncc3)ccc12` [Compound 466, 3-amino-N-(2-bromophenyl)-6-(4-pyridyl)thieno[2,3-b]pyridine-2-carboxamide], under setting [1], the EC50 was in the range of 5 to 25 µM.
`Nc1c(C(=O)Nc2ccc(Br)cc2)sc2nc(-c3ccc4c(c3)OCO4)ccc12` [Compound 474, 3-amino-6-(1,3-benzodioxol-5-yl)-N-(4-bromophenyl)thieno[2,3-b]pyridine-2-carboxamide]: under setting [1], the EC50 was under 5 µM.
`Cc1ccccc1NC(=O)c1sc2nc(-c3cccs3)ccc2c1N` [Compound 477, 3-amino-N-(o-tolyl)-6-(2-thienyl)thieno [2,3-b]pyridine-2-carboxamide]: under “DENV2, Vero, 48 h”, the EC50 is under 5 µM.
Turning to `Cc1ccc2c(n1)sc1c(=O)n(-c3cccc(Br)c3)nnc12` [Compound 479, 3-(3-bromophenyl)-7-methylpyrido[3′,2′:4,5]thieno[3,2-d] [1,2,3]triazin-4(3H)-one], the EC50 under setting [1] is under 5 µM.
For `Nc1c(C(=O)Nc2ccccc2C(F)(F)F)sc2nc(-c3ccncc3)ccc12` [Compound 480, 3-amino-6-(4-pyridyl)-N-[2-(trifluoromethyl)phenyl]thieno[2,3-b] pyridine-2-carboxamide], under setting [1], the EC50 was under 5 µM.
Regarding `Nc1c(C(=O)Nc2cccc(Br)c2)sc2nc(-c3ccncc3)ccc12` [Compound 481, 3-amino-N-(3-bromophenyl)-6-(4-pyridyl)thieno[2,3-b]pyridine-2-carboxamide], under setting [1], the EC50 lay in the range of 5 to 25 µM.
In the case of `Nc1c(C(=O)N2CCC[C@H]2C(=O)O)sc2nc(-c3cccs3)ccc12` [Compound 484, 1-[3-amino-6-(2-thienyl)thieno[2,3-b]pyridine-2-carbonyl]pyrrolidine-2-carboxylic acid], for the setting “DENV2, Vero, 48 h”, the EC50 was under 5 µM.
With `Nc1c(C(=O)Nc2ccccc2OC(F)(F)F)sc2nc(-c3ccncc3)ccc12` [Compound 487, 3-amino-6-(4-pyridyl)-N-[2-(trifluoromethoxy)phenyl]thieno[2,3-b] pyridine-2-carboxamide], the EC50 under setting [1] was under 5 µM.
Same read-out and setting: the value for `COc1cccc(-c2ccc3c(N)c(C(=O)Nc4cc(OC)ccc4OC)sc3n2)c1` [Compound 496, 3-amino-N-(2,5-dimethoxyphenyl)-6-(3-methoxyphenyl)thieno[2,3-b]pyridine-2-carboxamide] was under 5 µM.
